Data reported in patent US9561228B2 (Celgene Avilomics Research, Inc., priority 2013, dated 2017).

How the values were obtained:
MEK1 activated ERK1 = biological target: T1, MEK1 activated ERK1 (Homo sapiens, UniProt P27361); test: Omnia continuous-read kinase assay for potency against MEK1 activated ERK1; assay type: biochemical; conditions: ATP at KM, WT
T1 construct: purchased Millipore (Billerica, Mass.) 14-439-K
Outline: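 Apparent IC50 came from initial reaction slopes (RFU vs time) plotted against log inhibitor with a variable-slope fit. Reactions were started with ERK1 (4 nM final) added to 50 μM ATP, roughly at its appKM, and 10 μM Sox-conjugated ST17 peptide in 20 mM Tris pH 7.5, 5 mM MgCl2. Fluorescence was monitored every 71 seconds.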

Erk1 = biological target: T2, Erk1 (Homo sapiens, UniProt P27361); test: Protein Mass Modification Assay (intact protein MALDI, 60 min, 10-fold excess of compound); assay type: binding
T2 construct: purchased Millipore 14-439
T2 sequence (P27361 whole entry): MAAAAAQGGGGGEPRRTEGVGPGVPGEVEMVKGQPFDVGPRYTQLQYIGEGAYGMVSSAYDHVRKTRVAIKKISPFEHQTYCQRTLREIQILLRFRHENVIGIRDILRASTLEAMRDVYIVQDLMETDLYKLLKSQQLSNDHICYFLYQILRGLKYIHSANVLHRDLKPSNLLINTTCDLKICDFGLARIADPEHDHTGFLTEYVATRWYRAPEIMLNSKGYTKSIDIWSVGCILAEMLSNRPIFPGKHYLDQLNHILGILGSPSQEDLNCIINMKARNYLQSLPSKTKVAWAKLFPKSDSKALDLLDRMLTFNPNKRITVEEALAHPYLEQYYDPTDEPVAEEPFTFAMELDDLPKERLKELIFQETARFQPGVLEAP
Outline: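 Percent covalent modification comes from the intact-protein MALDI centroid mass shift, treated versus control, divided by compound MW. Before analysis, human Erk1 was exposed to compound at 10-fold excess over protein for 60 min at room temperature.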

[1] = system: ERK1/2 phosphorylation of p90RSK in A375 cells; test: Detection of total and phosphor-RSK by MSD ELISA (A375); assay type: cell-based; conditions: Homo sapiens, A-375, read-out: ERK1/ERK2 PRSK A375 EC50
Outline: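 Electrochemiluminescent MSD ELISA: common RSK capture antibody, with pRSK Ser380 or total RSK detection antibodies plus SulfoTag secondaries. Samples were lysates of A375 cells exposed to compound for 2 h at 37° C after overnight culture in 0.1% FBS DMEM.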

T1 sequence (P27361 whole entry): as above

| Compound | IC50 (MEK1 activated ERK1) [nM] | ERK1 Mass Mod (%) (Erk1) | EC50 [1] [nM] |
| --- | --- | --- | --- |
| C=CC(=O)Nc1c(Nc2nc(Nc3cc(OC)ncc3C)ncc2C(F)(F)F)ccc(C)c1F [Compound I-367, N-(2-fluoro-6-((2-((2-methoxy-5-methylpyridin-4-yl)amino)-5-(trifluoromethyl)pyrimidin-4-yl)amino)-3-methylphenyl)acrylamide] | 101 to 500 | E (a mass modification of ≧70%) | 101 to 500 |
| C=CC(=O)Nc1cc(C)ccc1Nc1nc(Nc2cc(OC(C)C)ncc2C)ncc1C(F)(F)F [Compound I-369, N-(2-((2-((2-isopropoxy-5-methylpyridin-4-yl)amino)-5-(trifluoromethyl)pyrimidin-4-yl)amino)-5-methylphenyl)acrylamide] | > 1000 | F (a mass modification of 31-69%) | > 1000 |
| C=CC(=O)Nc1cc(C)ccc1Nc1nc(Nc2c[nH]c(=O)cc2C)ncc1C(F)(F)F [Compound I-370, N-(5-methyl-2-((2-((4-methyl-6-oxo-1,6-dihydropyridin-3-yl)amino)-5-(trifluoromethyl)pyrimidin-4-yl)amino)phenyl)acrylamide] | 101 to 500 | E (a mass modification of ≧70%) | > 1000 |
| C=CC(=O)Nc1cc(C)ccc1Nc1nc(Nc2nc(OC)nc(OC)n2)ncc1C(F)(F)F [Compound I-371, N-(2-((2-((4,6-dimethoxy-1,3,5-triazin-2-yl)amino)-5-(trifluoromethyl)pyrimidin-4-yl)amino)-5-methylphenyl)acrylamide] | 101 to 500 | F (a mass modification of 31-69%) | 101 to 500 |
| C=CC(=O)Nc1cc(C)ccc1Nc1nc(Nc2cc(OC)nnc2OC)ncc1C(F)(F)F [Compound I-372, N-(2-((2-((3,6-dimethoxypyridazin-4-yl)amino)-5-(trifluoromethyl)pyrimidin-4-yl)amino)-5-methylphenyl)acrylamide] | 501 to 999 | F (a mass modification of 31-69%) | 101 to 500 |
| C=CC(=O)Nc1cc(C)ccc1Nc1nc(Nc2cc(-c3nc[nH]n3)ccc2C)ncc1C(F)(F)F [Compound I-373, N-(5-methyl-2-((2-((2-methyl-5-(1H-1,2,4-triazol-3-yl)phenyl)amino)-5-(trifluoromethyl)pyrimidin-4-yl)amino)phenyl)acrylamide] | > 1000 | F (a mass modification of 31-69%) | 501 to 999 |
| C=CC(=O)Nc1cc(C)c(F)cc1Nc1nc(Nc2nc(OC)ncc2Cl)ncc1C(F)(F)F [Compound I-374, N-(2-((2-((5-chloro-2-methoxypyrimidin-4-yl)amino)-5-(trifluoromethyl)pyrimidin-4-yl)amino)-4-fluoro-5-methylphenyl)acrylamide] | < 100 | E (a mass modification of ≧70%) | < 100 |
| C=CC(=O)Nc1cc(C)ccc1Nc1nc(Nc2ccc3ocnc3c2)ncc1C(F)(F)F [Compound I-375, N-(2-((2-(benzo[d]oxazol-5-ylamino)-5-(trifluoromethyl)pyrimidin-4-yl)amino)-5-methylphenyl)acrylamide] | > 1000 | E (a mass modification of ≧70%) | 101 to 500 |
| C=CC(=O)Nc1cc(C)ccc1Nc1nc(Nc2cc(OCCO)ncc2C)ncc1C(F)(F)F [Compound I-376, N-(2-((2-((2-(2-hydroxyethoxy)-5-methylpyridin-4-yl)amino)-5-(trifluoromethyl)pyrimidin-4-yl)amino)-5-methylphenyl)acrylamide] | 101 to 500 | E (a mass modification of ≧70%) | < 100 |
| C=CC(=O)Nc1cc(C)c(F)cc1Nc1nc(Nc2nc(OC)ncc2C)ncc1C(F)(F)F [Compound I-377, N-(4-fluoro-2-((2-((2-methoxy-5-methylpyrimidin-4-yl)amino)-5-(trifluoromethyl)pyrimidin-4-yl)amino)-5-methylphenyl)acrylamide] | < 100 | E (a mass modification of ≧70%) | < 100 |
